Test results from ChEMBL document CHEMBL4411307, “N,N'-diaryl-bishydrazones in a biphenyl platform: Broad spectrum antifungal agents” (Eur J Med Chem, 2019).
In brackets after ≈: the same amount, converted by molar mass. Activity calls are given as the source filed them. The rule behind the calls is not given here.

Experiments:
[1] = test system: Candida albicans; experiment: Antifungal activity against fluconazole/ITC-resistant Candida albicans ATCC 10231 measured after 48 hrs by CLSI M27-A3 protocol based method; type: functional; settings: ATCC 10231, 48 h
[2] = test system: Candida albicans; experiment: Antifungal activity against fluconazole/ITC-resistant Candida albicans ATCC 64124 measured after 48 hrs by CLSI M27-A3 protocol based method; type: functional; settings: ATCC 64124, 48 h
[3] = test system: Candida albicans; experiment: Antifungal activity against fluconazole/ITC-susceptible Candida albicans ATCC MYA-2876 measured after 48 hrs by CLSI M27-A3 protocol based method; type: functional; settings: ATCC MYA-2876, 48 h
[4] = test system: Candida albicans; experiment: Antifungal activity against fluconazole/ITC-resistant Candida albicans ATCC 90819 measured after 48 hrs by CLSI M27-A3 protocol based method; type: functional; settings: ATCC 90819, 48 h
[5] = test system: Candida albicans; experiment: Antifungal activity against fluconazole/ITC-susceptible Candida albicans ATCC MYA-2310 measured after 48 hrs by CLSI M27-A3 protocol based method; type: functional; settings: ATCC MYA-2310, 48 h
[6] = test system: Candida albicans; experiment: Antifungal activity against fluconazole/ITC-resistant Candida albicans ATCC MYA-1237 measured after 48 hrs by CLSI M27-A3 protocol based method; type: functional; settings: ATCC MYA-1237, 48 h
[7] = test system: Candida albicans; experiment: Antifungal activity against fluconazole/ITC-resistant Candida albicans ATCC MYA-1003 measured after 48 hrs by CLSI M27-A3 protocol based method; type: functional; settings: ATCC MYA-1003, 48 h
[8] = test system: Nakaseomyces glabratus; experiment: Antifungal activity against Candida glabrata ATCC 2001 measured after 48 hrs by CLSI M27-A3 protocol based method; type: functional; settings: CBS 138, 48 h
[9] = test system: Pichia kudriavzevii; experiment: Antifungal activity against Candida krusei ATCC 6258 measured after 48 hrs by CLSI M27-A3 protocol based method; type: functional; settings: ATCC 6258, 48 h
[10] = test system: Candida parapsilosis; experiment: Antifungal activity against Candida parapsilosis ATCC 22019 measured after 48 hrs by CLSI M27-A3 protocol based method; type: functional; settings: Lodderomyces parapsilosis, ATCC 22019, 48 h
[11] = test system: Aspergillus flavus; experiment: Antifungal activity against Aspergillus flavus ATCC MYA-3631 measured after 48 hrs by CLSI M38-A2 protocol based method; type: functional; settings: ATCC MYA-3631, 48 h
[12] = test system: Aspergillus nidulans; experiment: Antifungal activity against Aspergillus nidulans ATCC 38163 measured after 48 hrs by CLSI M38-A2 protocol based method; type: functional; settings: ATCC 38163, 48 h
[13] = test system: Aspergillus terreus; experiment: Antifungal activity against Aspergillus terreus ATCC MYA-3633 measured after 48 hrs by CLSI M38-A2 protocol based method; type: functional; settings: ATCC MYA-3633, 48 h
[14] = test system: A549; experiment: Cytotoxicity against human A549 cells after 24 hrs by resazurin based assay; type: cell-based; settings: a549, 24 h
[15] = test system: BEAS-2B; experiment: Cytotoxicity against human BEAS2B cells after 24 hrs by resazurin based assay; type: cell-based
[16] = Hemolytic activity in mouse RBC at […] after 1 hr relative to control; type: ADME, cell-based, Erythrocyte; settings: red blood cells (erythrocytes), read-out: Activity; also: tested at 0.48 µg/mL
[17] = Hemolytic activity in mouse RBC at […] ug/ml after 1 hr relative to control; type: ADME, cell-based, Erythrocyte; settings: red blood cells (erythrocytes), read-out: Activity; for hemolysis at 1 h, 15.6 ug/ml: at 15.6 µg/mL
[18] = Hemolytic activity in mouse RBC at 1.95 ug/ml after 1 hr relative to control; type: ADME, cell-based, Erythrocyte; settings: red blood cells (erythrocytes), read-out: Activity
[19] = Hemolytic activity in mouse RBC at 3.9 ug/ml after 1 hr relative to control; type: ADME, cell-based, Erythrocyte; settings: red blood cells (erythrocytes), read-out: Activity
[20] = Hemolytic activity in mouse RBC at 7.8 ug/ml after 1 hr relative to control; type: ADME, cell-based, Erythrocyte; settings: red blood cells (erythrocytes), read-out: Activity
[21] = Hemolytic activity in mouse RBC at 31.3 ug/ml after 1 hr relative to control; type: ADME, cell-based, Erythrocyte; settings: red blood cells (erythrocytes), read-out: Activity
[22] = Hemolytic activity in mouse RBC at 62.5 ug/ml after 1 hr relative to control; type: ADME, cell-based, Erythrocyte; settings: red blood cells (erythrocytes), read-out: Activity
[23] = test system: Listeria monocytogenes; experiment: Antibacterial activity against Listeria monocytogenes; type: functional, organism-based
[24] = test system: Staphylococcus aureus; experiment: Antibacterial activity against methicillin-resistant Staphylococcus aureus; type: functional, organism-based
[25] = test system: Enterococcus; experiment: Antibacterial activity against vancomycin-resistant Enterococcus; type: functional, organism-based
[26] = Selectivity index, ratio of CC50 for human A549 cells to MIC for fluconazole/ITC-resistant Candida albicans ATCC 10231; type: toxicity; settings: read-out: Selectivity Index
[27] = Selectivity index, ratio of CC50 for human A549 cells to MIC for fluconazole/ITC-resistant Candida albicans ATCC 64124; type: toxicity; settings: read-out: Selectivity Index
[28] = Selectivity index, ratio of CC50 for human A549 cells to MIC for fluconazole/ITC-susceptible Candida albicans ATCC MYA-2876; type: toxicity; settings: read-out: Selectivity Index
[29] = Selectivity index, ratio of CC50 for human A549 cells to MIC for fluconazole/ITC-resistant Candida albicans ATCC 90819; type: toxicity; settings: read-out: Selectivity Index
[30] = Selectivity index, ratio of CC50 for human A549 cells to MIC for fluconazole/ITC-susceptible Candida albicans ATCC MYA-2310; type: toxicity; settings: read-out: Selectivity Index
[31] = Selectivity index, ratio of CC50 for human A549 cells to MIC for fluconazole/ITC-resistant Candida albicans ATCC MYA-1237; type: toxicity; settings: read-out: Selectivity Index
[32] = Selectivity index, ratio of CC50 for human A549 cells to MIC for fluconazole/ITC-resistant Candida albicans ATCC MYA-1003; type: toxicity; settings: read-out: Selectivity Index
[33] = Selectivity index, ratio of CC50 for human A549 cells to MIC for Candida glabrata ATCC 2001; type: toxicity; settings: read-out: Selectivity Index
[34] = Selectivity index, ratio of CC50 for human A549 cells to MIC for Candida krusei ATCC 6258; type: toxicity; settings: read-out: Selectivity Index
[35] = Selectivity index, ratio of CC50 for human A549 cells to MIC for Candida parapsilosis ATCC 22019; type: toxicity; settings: read-out: Selectivity Index
[36] = Selectivity index, ratio of CC50 for human A549 cells to MIC for Aspergillus nidulans ATCC 38163; type: toxicity; settings: read-out: Selectivity Index
[37] = Selectivity index, ratio of CC50 for human A549 cells to MIC for Aspergillus terreus ATCC MYA-3633; type: toxicity; settings: read-out: Selectivity Index

SMILES | MIC [1] [µg/mL] | MIC [2] [µg/mL] | MIC [3] [µg/mL] | MIC [4] [µg/mL] | MIC [5] [µg/mL] | MIC [6] [µg/mL] | MIC [7] [µg/mL] | MIC [8] [µg/mL] | MIC [9] [µg/mL] | MIC [10] [µg/mL] | MIC [11] [µg/mL] | MIC [12] [µg/mL] | MIC [13] [µg/mL] | CC50 [14] [µg/mL] | CC50 [15] [µg/mL] | hemolysis at 1 h, […] [16] [%] | hemolysis at 1 h, 15.6 ug/ml [17] [%] | hemolysis at 1 h, 0.975 ug/ml [17] [%] | hemolysis at 1 h, 1.95 ug/ml [18] [%] | hemolysis at 1 h, 3.9 ug/ml [19] [%] | also measured
N=C(N)N/N=C/c1ccc(-c2cccc(/C=N/NC(=N)N)c2)cc1 | 1.95 to 3.9 (≈ 6.05 to 12.1 µM) | 3.9 (≈ 12.1 µM) | 3.9 (≈ 12.1 µM) | > 31.3 | 3.9 (≈ 12.1 µM) | 7.8 (≈ 24.2 µM) | > 31.3 | 3.9 (≈ 12.1 µM) | 1.95 (≈ 6.05 µM) | 1.95 (≈ 6.05 µM) | > 31.3 | 7.8 (≈ 24.2 µM) | 7.8 (≈ 24.2 µM) | 5.3 (≈ 16.4 µM) | 2.9 (≈ 9 µM) | 0 | 3.8 | 0 | 1.1 | 1.2 | hemolysis at 1 h, 7.8 ug/ml [20]: 2.3%; hemolysis at 1 h, 31.3 ug/ml [21]: 3.8%; hemolysis at 1 h, 62.5 ug/ml [22]: 13.1%
Fc1cccc(N/N=C/c2ccc(-c3cccc(/C=N/Nc4cccc(F)c4)c3)cc2)c1 | 1.95 (≈ 4.57 µM) | > 31.3 | 7.8 (≈ 18.3 µM) | 15.6 (≈ 36.6 µM) | > 31.3 | 15.6 (≈ 36.6 µM) | 7.8 (≈ 18.3 µM) | > 31.3 | 1.95 (≈ 4.57 µM) | 31.3 (≈ 73.4 µM) | 3.9 (≈ 9.14 µM) | 7.8 (≈ 18.3 µM) | > 31.3 | 11.7 (≈ 27.4 µM) | 11.8 (≈ 27.7 µM) | 0 | 13.9 | 4.6 | 0.6 | 2.5 | Activity [23]: inactive; Activity [24]: inactive; Activity [25]: inactive; selectivity ratio [26]: 6; selectivity ratio [27]: 0.4; selectivity ratio [28]: 1.5; selectivity ratio [29]: 0.8; selectivity ratio [30]: 0.4; selectivity ratio [31]: 0.8; selectivity ratio [32]: 1.5; selectivity ratio [33]: 0.4; selectivity ratio [34]: 6; selectivity ratio [35]: 0.4; selectivity ratio [36]: 1.5; selectivity ratio [37]: 0.4; hemolysis at 1 h, 7.8 ug/ml [20]: 7.9%; hemolysis at 1 h, 31.3 ug/ml [21]: 32.6%; hemolysis at 1 h, 62.5 ug/ml [22]: 39.5%
